Results published in patent US11844801B2, “Oral compositions of MK2 pathway inhibitor for treatment of immune conditions” (priority 2020, dated 2023).
In brackets after ≈: the same amount, converted by molar mass.

Assays:
[1] = Phase 2a RA study: Hand-Wrist MRI RAMRIS and CARLOS; assay type: in vivo, human; conditions: for Carlos Cartilage Loss, mean / RAMRIS Erosion Score, mean / RAMRIS Osteitis Score, mean / RAMRIS Synovitis Score, mean / Carlos Cartilage Loss, change from baseline, mean / RAMRIS Erosion Score, change from baseline, mean / RAMRIS Osteitis Score, change from baseline, mean / RAMRIS Synovitis Score, change from baseline, mean: n = 15
[2] = system: endogenous cytokines (TNF-α, IL-6, IL-8, MIP1β, IL-1RA); test: Phase 2a RA study: endogenous plasma cytokines; assay type: in vivo, human; conditions: 50 mg BID
Procedure: Pharmacodynamics. […] For the endogenous cytokine levels (e.g., TNF-α, IL-1β, IL-6, IL-8, IFNγ, IL-17, IL-18, IL-10, IL-1α, and IL-1RA), 1 mL of serum will be drawn at each identified time point. […] Samples were evaluated at trough drug levels through day 84 and the last point is near Cmax following the final dose on day 84. The horizontal line ( ? ) in FIG. 19A depicts TNF-α levels in blood from normal volunteer subjects that were evaluated in the same assay. […] The horizontal line ( ? ) in FIG. 19B represents IL-1RA levels in healthy subjects. […] Plasma levels of three proinflammatory cytokines (TNF-α (FIG. 20A), IL-6 (FIG. 20C), IL-8 (FIG. 20B)), from a 13-plex tested are shown in this Figure, along with the chemokine MIP1β (FIG. 20D). The data are expressed as median % change relative to pre-dosing for drug treated patients. […] The horizontal line ( ? ) describes cytokine/chemokine level in plasma from normal healthy volunteer subjects.

TNF-α [3] = test: R848 stimulated TNF-α production in human whole blood; assay type: cell-based; conditions: R848, 0.5 ug/mL, 5 hr
Procedure: Human whole blood assays were performed as described above with the exceptions listed below. […] Compounds were serially diluted in 100% DMSO (Sigma-Aldrich, D2650) followed by a 10× dilution into RPMI (Gibco, 11875). After the one-hour incubation with the compounds or vehicle, 2 μL of R848 (InvivoGen, tlrl-r848) in RPMI (Gibco, 11875) was added for a final concentration of 0.5 μg/mL to each well except for the no stimulus wells. After five hours of incubation with R848, plasma was harvested and assayed for TNF-α, IL-1β, IL-6 and IL-8 using Meso Scale Discovery Technology V-plex human cytokine kits according to the kit protocol.

IL-8 = test: IL-1β stimulated IL-8 production in human whole blood; assay type: cell-based
Procedure: Compounds were serially diluted in 100% DMSO (Sigma-Aldrich, D2650) followed by a 10× dilution into RPMI (Gibco, 11875). After the one-hour incubation with the compounds or vehicle, 2 μL of IL-1β (R&D, 201-LB-010) in RPMI (Gibco, 11875) was added for a final concentration of 0.5 μg/mL to each well except for the no stimulus wells. After six hours of incubation with IL-1β, plasma was harvested and assayed for TNF-α, IL-6 and IL-8 using Meso Scale Discovery Technology V-plex human cytokine kits according to the kit protocol.

TNF-α [4] = test: Differentiated U937 cell LPS stimulated cytokine assay (TNF-α); assay type: cell-based; conditions: Homo sapiens, U-937, U937 cells, 100 ng/mL, 4 hr
Procedure: U937 Cell differentiation and LPS stimulated cytokine assay: The U937 human pre-monocytic cell line (ATCC, CRL-1593.2) was grown in complete media: RPMI 1640 (Gibco, A10491) with penicillin-streptomycin (10 U/mL)-glutamine (2 mM) (Gibco, 10378016) and 10% FBS(Gibco, 26140-079). Cells were differentiated to a monocyte/macrophage phenotype with the addition of PMA (Sigma-Aldrich, P1585) (20 ng/mL, 24 hours), washed with DPBS (Gibco, 14190-136) and incubated in complete media for 24 hours at 37° C., 5% CO2. Following recovery, the cells were scraped, counted, re-plated in complete media in accordance with the experimental design and incubated for an additional 24 hours at 37° C., 5% CO2 prior to stimulation with LPS (Sigma-Aldrich, L2630) as described below. Differentiated U937 cells were pretreated for one hour in the presence of serially diluted compound or vehicle then stimulated with LPS at a final concentration of 100 ng/mL for four hours. Culture media was then collected for determination of cytokine levels using Meso Scale Technology.

TNF-α [5] = test: Mouse neutrophil (mPMN) IL-1α stimulated TNF-α; assay type: cell-based
Procedure: Biosynthesis of […] was quantified using MSD technology. […] Cells and compound were stimulated with mouse IL-1α to a final concentration of 10 ng/mL and incubated for 4 hours at 37° C. Supernatants were collected and TNF-α levels quantitated using MSD technology.

TNF-α [6] = test: Porcine whole blood LPS stimulated TNF-α assay; assay type: cell-based; conditions: Sus scrofa, Pig Whole Blood, 10 µg/mL, 4 hr
Procedure: Porcine LPS stimulated TNF-α Assay—Porcine whole blood was collected into heparinized vacutainers then transferred into conical tubes and shipped overnight on wet ice. Porcine whole blood was aliquoted (160 μL/well) into round bottom 96 well tissue culture plates. Compounds were serially diluted in 100% DMSO (Sigma-Aldrich, D2650) followed by a 100× dilution into RPMI/10% FBS (Gibco, 11875/26140). The diluted compounds were then added to each plate in duplicate 20 μL aliquots for final concentrations ranging from 10 μM to 1 pM. DMSO final concentration was 0.1%. After a one-hour incubation at 37° C. with 5% CO2, 20 μL of LPS (Sigma-Aldrich, L2630), in RPMI/10% FBS (Gibco, 11875/26140) was added for a final concentration of 10 μg/mL to each well except for the no stimulus wells. After four hours of incubation with LPS, plasma was harvested by centrifugation at 1,800×g for five minutes. The plasmas were assayed for TNF-α levels using a porcine specific TNF-α Quantikine ELISA kit (R&D, PTA00) according to the kit protocol.

TNF-α, IL-6, and IL-8 = test: Ex vivo IL-1β-induced TNF-α, IL-6 and IL-8 in blood of dosed healthy subjects; conditions: human
Procedure: Methods: Safety, pharmacokinetics (PK) and pharmacodynamics (PD) were assessed in two cohorts of subjects in a randomized, observer-blind, placebo-controlled study in male and female healthy subjects aged 18-55 (n=77). The study consisted of twenty (20) subjects enrolled into 2 cohorts. […] The final dose was administered in the morning on Day 7. Blood samples were obtained Day 1—before dosing, Day 1—4 hours after dosing and Day 1—12 hours after dosing and Day 7—before dosing, Day 7—4 hours after dosing, day 7—12 hour after dosing and Day 7—24 hours after dosing for each subject.

clinical = conditions: male, human, in vivo
[7] = most severe hand, baseline, 50 mg BID arm
[8] = most severe hand, week 12, 50 mg BID
[9] = other hand, baseline, 50 mg BID arm

For `Cc1cnc(-c2ccnc(C(C)(C)O)n2)cc1-n1c(C)cc(OCc2ncc(F)cc2F)c(Cl)c1=O` (single isomer, unassigned) [ATI-450, 3-chloro-4-((3,5-difluoropyridin-2-yl)methoxy)-2′-(2-(2-hydroxypropan-2-yl)pyrimidin-4-yl)-5′,6-dimethyl-2H-[1,4′-bipyridin]-2-one], the “joint destruction and synovitis by MRI” value ([1]; 50 mg BID plus MTX, 12 weeks) was “prevents the progression of joint destruction and provides significant improvement in synovitis”, the “Carlos Cartilage Loss, mean” value [1, 7] was 7.6 and the “RAMRIS Erosion Score, mean” value [1, 7] was 13.27. The “RAMRIS Osteitis Score, mean” value [1, 7] was 2.93, the “RAMRIS Synovitis Score, mean” value [1, 7] was 6.1 and the “Carlos Cartilage Loss, change from baseline, mean” value [1, 8] was 0.03. The “Carlos Cartilage Loss, mean” value [1, 8] was 7.63, the “RAMRIS Erosion Score, change from baseline, mean” value [1, 8] was 0.63 and the “RAMRIS Erosion Score, mean” value [1, 8] was 13.9. The “RAMRIS Osteitis Score, change from baseline, mean” value [1, 8] was 0.9, the “RAMRIS Osteitis Score, mean” value [1, 8] was 3.83 and the “RAMRIS Synovitis Score, change from baseline, mean” value [1, 8] was −0.17. The “RAMRIS Synovitis Score, mean” value [1, 8] was 5.93, the “Carlos Cartilage Loss, mean” value [1, 9] was 7.45 and the “RAMRIS Erosion Score, mean” value [1, 9] was 13.3. The “RAMRIS Osteitis Score, mean” value [1, 9] was 2.4, the “RAMRIS Synovitis Score, mean” value [1, 9] was 4.07 and the “Carlos Cartilage Loss, change from baseline, mean” value ([1]; other hand, week 12, 50 mg BID) was 0. The “Carlos Cartilage Loss, mean” value ([1]; other hand, week 12, 50 mg BID) was 7.45, the “RAMRIS Erosion Score, change from baseline, mean” value ([1]; other hand, week 12, 50 mg BID) was −0.27 and the “RAMRIS Erosion Score, mean” value ([1]; other hand, week 12, 50 mg BID) was 13.03. For the same molecule, the “RAMRIS Osteitis Score, change from baseline, mean” value ([1]; other hand, week 12, 50 mg BID) was 1, the “RAMRIS Osteitis Score, mean” value ([1]; other hand, week 12, 50 mg BID) was 3.4 and the “RAMRIS Synovitis Score, change from baseline, mean” value ([1]; other hand, week 12, 50 mg BID) was 0.33. The “RAMRIS Synovitis Score, mean” value ([1]; other hand, week 12, 50 mg BID) was 4.4, the “median concentrations of endogenous TNF-α, IL-6, IL-8, and MIP1β” value ([2]; 12-week period) was “marked and sustained inhibition” and the “endogenous plasma IL-1RA” value ([2]; 12 weeks) was “not impacted by ATI-450”. The “endogenous plasma IL-6, IL-8, and MIP1β” value ([2]; 12 weeks) was “reduced at week 4 and this reduction was maintained through the 12 weeks”, the “endogenous plasma TNF-α” value ([2]; trough) was “rapidly reduced by 4 weeks of dosing” and the IC50 (TNF-α [3]) was 34.8 ± 5 nM. It also gave an IC80 (IL-8) of 0.04 ± 0.012 µg/mL (≈ 0.0778 µM), an IC50 (TNF-α [4]) of 1.55 ± 0.35 nM and an IC50 (TNF-α [5]; Mus musculus, Neutrophil, mPMN, IL-1α, 10 ng/mL, 4 hr) of 5 nM. For the same molecule, the “IL-1α mediated TNF-α signaling in neutrophils” value (TNF-α [5]; mouse IL-1α 10 ng/mL, 4 hours) was “dose dependently inhibits”, the IC50 (TNF-α [6]) was 7.4 nM and the “ex vivo IL-1β-induced TNF-α, IL-6, and IL-8” value (TNF-α, IL-6, and IL-8) was “potently inhibits”. It also gave a Tmax (clinical) of 2 h.
